Source: BindingDB's records for doi:10.1021/jm020871e (University of Bonn, 2002)
pEC50: −log10 of the molar value.

Target: Muscarinic acetylcholine receptor M2 (Sus scrofa) (UniProt P06199)
Assay: Binding of [3H]N-methylscopolamine at porcine heart Muscarinic acetylcholine receptor M2 that inhibits the dissociation of [3H]NMS half maximally (pEC50diss) was reported

Chain of Muscarinic acetylcholine receptor M2 (Sus scrofa) (P06199 whole entry, looked up): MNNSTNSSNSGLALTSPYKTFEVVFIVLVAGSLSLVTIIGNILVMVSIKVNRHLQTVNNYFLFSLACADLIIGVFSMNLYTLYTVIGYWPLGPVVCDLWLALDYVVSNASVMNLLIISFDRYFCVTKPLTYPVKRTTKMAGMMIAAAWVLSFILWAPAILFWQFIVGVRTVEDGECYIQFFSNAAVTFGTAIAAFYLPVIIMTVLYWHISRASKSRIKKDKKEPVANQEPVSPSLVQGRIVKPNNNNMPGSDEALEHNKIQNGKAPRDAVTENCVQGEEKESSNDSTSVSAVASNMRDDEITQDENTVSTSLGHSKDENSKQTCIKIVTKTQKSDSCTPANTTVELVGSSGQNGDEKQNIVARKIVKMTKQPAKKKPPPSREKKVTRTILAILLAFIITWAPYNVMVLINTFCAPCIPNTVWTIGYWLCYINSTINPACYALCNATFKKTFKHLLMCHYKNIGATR

Row | SMILES | pEC50
1 | CC(C)(CN1C(=O)c2ccccc2C1=O)C[N+](C)(C)CCCCCC[N+](C)(C)CC(C)(C)CN1C(=O)c2ccccc2C1=O | 6.75
2 | Cc1ccc2c(c1)C(=O)N(CCC[N+](C)(C)CCCCCC[N+](C)(C)CCCN1C(=O)c3ccccc3C1=O)C2=O | 6.49
3 | Cc1ccc2c(c1)C(=O)N(CCC[N+](C)(C)CCCCCC[N+](C)(C)CCCN1C(=O)c3ccc(C)cc3C1=O)C2=O | 6.77
4 | Cc1ccc2c(c1)C(=O)N(CC(C)(C)C[N+](C)(C)CCCCCC[N+](C)(C)CC(C)(C)CN1C(=O)c3ccc(C)cc3C1=O)C2=O | 7.33
5 | CC(C)(CN1C(=O)c2ccccc2C1=O)C[N+](C)(C)CCCCCC[N+](C)(C)CCCN1C(=O)c2ccccc2C1=O | 6.87

More lines, now with the values ahead:

Row | pEC50 | SMILES
6 | 7.15 | Cc1ccc2c(c1)C(=O)N(CCC[N+](C)(C)CCCCCC[N+](C)(C)CC(C)(C)CN1C(=O)c3ccccc3C1=O)C2=O
7 | 7.26 | Cc1ccc2c(c1)C(=O)N(CC(C)(C)C[N+](C)(C)CCCCCC[N+](C)(C)CCCN1C(=O)c3ccccc3C1=O)C2=O
8 | 7.44 | Cc1ccc2c(c1)C(=O)N(CCC[N+](C)(C)CCCCCC[N+](C)(C)CC(C)(C)CN1C(=O)c3ccc(C)cc3C1=O)C2=O
